Test results reported in patent publication US7163923B2, “Peptide deformylase activated prodrugs” (Celmed Oncology (USA), Inc., priority 2001, dated 2007).
Like-named read-outs stand apart in the source and are kept apart here.

Key:
Format in all cases: cell-based
P. aeruginosa = assay: MIC susceptibility testing (modified NCCLS, 384-well); conditions: Pseudomonas aeruginosa
Description: (§1) The NCCLS (National Committee for Clinical Laboratory Standards), method to determine MIC's of antimicrobial compounds is modified for high-throughput screening. All stocks of tested compounds are prepared in either water or in DMSO depending on solubility. At the highest concentration, DMSO content should not exceed 0.5%. Briefly, twenty 2-fold serial dilutions of test compounds from the highest concentration are made in a 384-well microtiter plate. […] Bacterial growth is determined by the increase of optical density at 600 nm using a microplate reader (Tecan SpectraFluor Plus).

E. cloacae = assay: as above; conditions: Enterobacter cloacae
Description: as §1

H. influenzae = assay: as above; conditions: Haemophilus influenzae
Description: as §1

E. aerogenes = assay: as above; conditions: Klebsiella aerogenes
Description: as §1

K. pneumoniae = assay: as above; conditions: Klebsiella pneumoniae
Description: as §1

S. epidermidis = assay: as above; conditions: Staphylococcus epidermidis
Description: as §1

M. catarrhalis = assay: as above
Description: as §1

E. faecalis = assay: as above; conditions: Enterococcus faecalis
Description: as §1

[1] = Toxicity to mammalian cells; conditions: after 16 hours of exposure
Description: Mammalian cells were treated with NB2046 as described above.

S. aureus = assay: MIC susceptibility testing (modified NCCLS, 384-well); conditions: Staphylococcus aureus, read-out: MIC
Description: The NCCLS (National Committee for Clinical Laboratory Standards), method to determine MIC's of antimicrobial compounds is modified for high-throughput screening. All stocks of tested compounds are prepared in either water or in DMSO depending on solubility. At the highest concentration, DMSO content should not exceed 0.5%. Briefly, twenty 2-fold serial dilutions of test compounds from the highest concentration are made in a 384-well microtiter plate. Each well is inoculated with testing bacteria in broth to a final concentration of approximately 1–1.5×10^6 cells/ml. Bacterial growth is determined by the increase of optical density at 600 nm using a microplate reader (Tecan SpectraFluor Plus). The MIC is defined as the lowest concentration at which bacterial growth (equivalent to visible growth) was inhibited after 16 to 18 hours of incubation at the appropriate temperature required for the bacteria growth.
Using the assay provided above, the potency of NB2046 was compared to triclosan.

CSCCC(NC=O)C(=O)NC(CC(C)C)C(=O)Oc1cc(Cl)ccc1Oc1ccc(Cl)cc1Cl (stereo not shown) [NB2046, 2-(2-formylamino-4-methylsulfanyl-butyrylamino)-4-methyl-pentanoic acid 5-chloro-2-(2,4-dichloro-phenoxy)-phenyl ester]
4 µg/mL: MIC (E. aerogenes; ATCC35028, E. aerogenes ATCC 35028, Exp. #1, Table 3) | MIC (K. pneumoniae; ATCC51503, K. pneumoniae ATCC 51503, Exp. #1, Table 4) | MIC (K. pneumoniae; ATCC700721, K. pneumoniae ATCC 700721, Exp. #1, Table 4)
≥ 4000 ng/mL: MIC (S. aureus; ATCC 700699 / MSSA, MSSA ATCC 700699, Table 5)
7.81 ng/mL: MIC (S. aureus; ATCC 700787 / MSSA, MSSA ATCC 700787, Table 5)
> 64 µg/mL: MIC (P. aeruginosa; ATCC21726, P. aeruginosa ATCC 21726, Exp. #1, Table 4) | MIC (P. aeruginosa; ATCC29872, P. aeruginosa ATCC 29872, Exp. #1, Table 4)
32000 ng/mL: MIC (S. aureus; ATCC 11632 / MSSA, MSSA ATCC 11632, Exp. #1, Table 4) | MIC (S. aureus; ATCC 700699 / MRSA, MRSA ATCC 700699, Exp. #1, Table 4) | MIC (S. aureus; ATCC 700699 / MRSA, MRSA ATCC 700699, Exp. #2, Table 4)
~30 µM: IC50 at 16 h [1]
16000 ng/mL: MIC (S. aureus; ATCC 11632 / MSSA, MSSA ATCC 11632, Exp. #2, Table 4) | MIC (S. aureus; ATCC700699, S. aureus ATCC 700699, Exp. #1, Table 3)
0.488 ng/mL: MIC (S. aureus; ATCC 33592 / MSSA, MSSA ATCC 33592, Table 5) | MIC (S. aureus; ATCC 33593 / MSSA, MSSA ATCC 33593, Table 5)
0.25 µg/mL: MIC (E. aerogenes; ATCC29009, E. aerogenes ATCC 29009, Exp. #1, Table 3) | MIC (S. epidermidis; ATCC700578, S. epidermidis ATCC 700578, Exp. #2, Table 3)
64 µg/mL: MIC (H. influenzae; ATCC33533, H. influenzae ATCC 33533, Exp. #1, Table 4) | MIC (E. faecalis; ATCC49757, E. faecalis ATCC 49757, Exp. #1, Table 4)
2 µg/mL: MIC (E. aerogenes; ATCC29751, E. aerogenes ATCC 29751, Exp. #1, Table 3) | MIC (E. aerogenes; ATCC35028, E. aerogenes ATCC 35028, Exp. #2, Table 3) | MIC (K. pneumoniae; ATCC51504, K. pneumoniae ATCC 51504, Exp. #2, Table 3) | MIC (K. pneumoniae; ATCC700721, K. pneumoniae ATCC 700721, Exp. #1, Table 3) | MIC (K. pneumoniae; ATCC700721, K. pneumoniae ATCC 700721, Exp. #2, Table 3) | MIC (S. epidermidis; ATCC700565, S. epidermidis ATCC 700565, Exp. #1, Table 3) | MIC (S. epidermidis; ATCC700565, S. epidermidis ATCC 700565, Exp. #2, Table 3)
4000 ng/mL: MIC (S. aureus; ATCC 700260 / MSSA, MSSA ATCC 700260, Exp. #2, Table 4)
16 µg/mL: MIC (E. cloacae; ATCC23355, E. cloacae ATCC 23355, Exp. #1, Table 4) | MIC (E. aerogenes; ATCC35028, E. aerogenes ATCC 35028, Exp. #2, Table 4)
0.031 ng/mL: MIC (S. aureus; ATCC 700260 / MSSA, MSSA ATCC 700260, Table 5)
1 µg/mL: MIC (E. cloacae; ATCC23355, E. cloacae ATCC 23355, Exp. #2, Table 4) | MIC (E. aerogenes; ATCC13048, E. aerogenes ATCC 13048, Exp. #1, Table 3) | MIC (E. aerogenes; ATCC13048, E. aerogenes ATCC 13048, Exp. #2, Table 3) | MIC (E. aerogenes; ATCC29751, E. aerogenes ATCC 29751, Exp. #2, Table 3) | MIC (K. pneumoniae; ATCC51504, K. pneumoniae ATCC 51504, Exp. #1, Table 3)
≤ 0.125 µg/mL: MIC (E. aerogenes; ATCC29009, E. aerogenes ATCC 29009, Exp. #2, Table 3) | MIC (S. epidermidis; ATCC27626, S. epidermidis ATCC 27626, Exp. #1, Table 3) | MIC (S. epidermidis; ATCC27626, S. epidermidis ATCC 27626, Exp. #2, Table 3) | MIC (S. epidermidis; ATCC700566, S. epidermidis ATCC 700566, Exp. #1, Table 3) | MIC (S. epidermidis; ATCC700566, S. epidermidis ATCC 700566, Exp. #2, Table 3) | MIC (S. epidermidis; ATCC700583, S. epidermidis ATCC 700583, Exp. #1, Table 3) | MIC (S. epidermidis; ATCC700583, S. epidermidis ATCC 700583, Exp. #2, Table 3) | MIC (M. catarrhalis; Moraxella catarrhalis, ATCC43627, M. catarrhalis ATCC 43627, Exp. #1, Table 3, read-out: MIC) | MIC (M. catarrhalis; Moraxella catarrhalis, ATCC43628, M. catarrhalis ATCC 43628, Exp. #1, Table 3, read-out: MIC) | MIC (M. catarrhalis; Moraxella catarrhalis, ATCC49265, M. catarrhalis ATCC 49265, Exp. #1, Table 3, read-out: MIC) | MIC (M. catarrhalis; Moraxella catarrhalis, ATCC51584, M. catarrhalis ATCC 51584, Exp. #1, Table 3, read-out: MIC)
≤ 125 ng/mL: MIC (S. aureus; ATCC11632, S. aureus ATCC 11632, Exp. #1, Table 3) | MIC (S. aureus; ATCC11632, S. aureus ATCC 11632, Exp. #2, Table 3) | MIC (S. aureus; ATCC13301, S. aureus ATCC 13301, Exp. #1, Table 3) | MIC (S. aureus; ATCC13301, S. aureus ATCC 13301, Exp. #2, Table 3) | MIC (S. aureus; ATCC14154, S. aureus ATCC 14154, Exp. #1, Table 3) | MIC (S. aureus; ATCC14154, S. aureus ATCC 14154, Exp. #2, Table 3) | MIC (S. aureus; ATCC33591, S. aureus ATCC 33591, Exp. #1, Table 3) | MIC (S. aureus; ATCC33591, S. aureus ATCC 33591, Exp. #2, Table 3) | MIC (S. aureus; ATCC33592, S. aureus ATCC 33592, Exp. #1, Table 3) | MIC (S. aureus; ATCC33592, S. aureus ATCC 33592, Exp. #2, Table 3) | MIC (S. aureus; ATCC33593, S. aureus ATCC 33593, Exp. #1, Table 3) | MIC (S. aureus; ATCC33593, S. aureus ATCC 33593, Exp. #2, Table 3) | MIC (S. aureus; ATCC 33594 / MSSA, MSSA ATCC 33594, Exp. #1, Table 4) | MIC (S. aureus; ATCC 33594 / MSSA, MSSA ATCC 33594, Exp. #2, Table 4) | MIC (S. aureus; ATCC43300, S. aureus ATCC 43300, Exp. #1, Table 3) | MIC (S. aureus; ATCC43300, S. aureus ATCC 43300, Exp. #2, Table 3) | MIC (S. aureus; ATCC700260, S. aureus ATCC 700260, Exp. #1, Table 3) | MIC (S. aureus; ATCC700260, S. aureus ATCC 700260, Exp. #2, Table 3) | MIC (S. aureus; ATCC 700260 / MSSA, MSSA ATCC 700260, Exp. #1, Table 4) | MIC (S. aureus; ATCC700698, S. aureus ATCC 700698, Exp. #1, Table 3) | MIC (S. aureus; ATCC700698, S. aureus ATCC 700698, Exp. #2, Table 3) | MIC (S. aureus; ATCC700787, S. aureus ATCC 700787, Exp. #1, Table 3) | MIC (S. aureus; ATCC700787, S. aureus ATCC 700787, Exp. #2, Table 3) | MIC (S. aureus; ATCC700788, S. aureus ATCC 700788, Exp. #1, Table 3) | MIC (S. aureus; ATCC700788, S. aureus ATCC 700788, Exp. #2, Table 3) | MIC (S. aureus; ATCC700789, S. aureus ATCC 700789, Exp. #1, Table 3) | MIC (S. aureus; ATCC700789, S. aureus ATCC 700789, Exp. #2, Table 3)
8 µg/mL: MIC (K. pneumoniae; ATCC51503, K. pneumoniae ATCC 51503, Exp. #1, Table 3) | MIC (K. pneumoniae; ATCC51503, K. pneumoniae ATCC 51503, Exp. #2, Table 3) | MIC (K. pneumoniae; ATCC51503, K. pneumoniae ATCC 51503, Exp. #2, Table 4) | MIC (K. pneumoniae; ATCC700721, K. pneumoniae ATCC 700721, Exp. #2, Table 4)
62.5 ng/mL: MIC (S. aureus; ATCC 700788 / MSSA, MSSA ATCC 700788, Table 5)
≦0.125 μg/ml: MIC (M. catarrhalis; M. catarrhalis ATCC 43627, Exp. #2, Table 3) | MIC (M. catarrhalis; M. catarrhalis ATCC 43628, Exp. #2, Table 3) | MIC (M. catarrhalis; M. catarrhalis ATCC 49265, Exp. #2, Table 3) | MIC (M. catarrhalis; M. catarrhalis ATCC 51584, Exp. #2, Table 3)
3.91 ng/mL: MIC (S. aureus; ATCC 700698 / MSSA, MSSA ATCC 700698, Table 5)
0.5 µg/mL: MIC (E. cloacae; ATCC23355, E. cloacae ATCC 23355, Exp. #1, Table 3) | MIC (E. cloacae; ATCC23355, E. cloacae ATCC 23355, Exp. #2, Table 3) | MIC (S. epidermidis; ATCC700578, S. epidermidis ATCC 700578, Exp. #1, Table 3)
≥ 64 µg/mL: MIC (P. aeruginosa; ATCC21726, P. aeruginosa ATCC 21726, Exp. #2, Table 4) | MIC (P. aeruginosa; ATCC29872, P. aeruginosa ATCC 29872, Exp. #2, Table 4) | MIC (H. influenzae; ATCC33533, H. influenzae ATCC 33533, Exp. #2, Table 4)
15.6 ng/mL: MIC (S. aureus; ATCC 33591 / MSSA, MSSA ATCC 33591, Table 5) | MIC (S. aureus; ATCC 700789 / MSSA, MSSA ATCC 700789, Table 5)
32 µg/mL: MIC (E. aerogenes; ATCC35028, E. aerogenes ATCC 35028, Exp. #1, Table 4) | MIC (E. faecalis; ATCC49757, E. faecalis ATCC 49757, Exp. #2, Table 4) | MIC (E. faecalis; ATCC700802, E. faecalis ATCC 700802, Exp. #1, Table 4) | MIC (E. faecalis; ATCC700802, E. faecalis ATCC 700802, Exp. #2, Table 4)
8000 ng/mL: MIC (S. aureus; ATCC700699, S. aureus ATCC 700699, Exp. #2, Table 3)
0.015 ng/mL: MIC (S. aureus; ATCC 13301 / MSSA, MSSA ATCC 13301, Table 5)
0.977 ng/mL: MIC (S. aureus; ATCC 11632 / MSSA, MSSA ATCC 11632, Table 5) | MIC (S. aureus; ATCC 14154 / MSSA, MSSA ATCC 14154, Table 5) | MIC (S. aureus; ATCC 43300 / MSSA, MSSA ATCC 43300, Table 5)
